How the values were obtained:
[1] = test system: Mealworm beetle (Tenebrio molitor); assay: Fumigation test in glass vessel, mealworm beetles; format: in vivo; details: TENEMO beetles; Example 3; gas 45.8 g/m^3, 17.2° C. (1st fumigation), 45.4 g/m^3, 17.7° C. (2nd); 54% rel. air humidity
From the text: (§1) a1) Mealworm beetle (Tenebrio molitor)=TENEMO
(§2) The test organisms, separated by species, were placed into a glass vessel measuring 30 cm×30 cm×60 cm, which was sealed with a glass lid so as to be airtight. The adults and the larvae of the mealworm beetle (Tenebrio molitor) and the broad-horned flour beetle (Gnathocerus cornutus) were placed into small glass vessels approximately 5 cm in diameter, which were closed with a gauze lid and in which they could freely move about. The larvae of the rice weevil had burrowed into seeds of grain. The wood pest larvae were inserted into small blocks of wood measuring 5 cm×2.5 cm×2 cm. The openings were sealed with wads of cotton wool. Only one each of the larvae of the house longhorn beetle (Hylotrupes bajulus) was inserted into a piece of wood, while 6-8 larvae of the common furniture beetle (Anobium punctatum) were inserted into each piece of wood.
(§3) The respective gas was then introduced into the fumigation vessel through a gas line from a gas tank that contained the specified amount of gas. After a defined time period, the fumigation vessel was purged with compressed air. The discharged gas was purified by an attached gas scrubber.
(§4) The beetles were observed until they died. This point was recorded for each species. The larvae of the wood pests as well as the larvae of the rice weevil (Sitophilus oryzae) had to be picked out of the wood or the grain to check their condition. If any of the animals were still alive, the wooden test blocks remaining in the vessel were fumigated again and were reexamined after the corresponding time span had elapsed. The same number of animals in the untreated control was also checked at each point.
(§5) The vitality of the animals was checked at certain time intervals. The beetles could be observed through the fumigation vessel. This was also true for the larvae of the mealworm beetle and the broad-horned flour beetle. The wooden test blocks of the wood pest larvae were opened with hammer and chisel. Tweezers were used to pull the rice weevil larvae out of the grain seeds. The exact time intervals and the number of the evaluated pests were documented in the test results.

[2] = test system: wood pests (house longhorn beetle, common furniture beetle); assay: Fumigation test, wood pests; format: in vivo, Hylotrupes bajulus, Anobium punctatum
From the text: as §2, §3, §4, §5

wood and storage pests = assay: Fumigation test, wood and storage pests (overall statements); format: in vivo; details: Conclusion of Examples 1-5
From the text: as §2, §3, §4, §5

[3] = test system: House longhorn beetle (Hylotrupes bajulus) larvae; assay: Fumigation test in glass vessel, house longhorn beetle larvae in wood blocks; format: in vivo; details: HYLOBA larvae in wood blocks
From the text: (§6) b1) House longhorn beetle (Hylotrupes bajulus)=HYLOBA
as §2, §3, §4, §5

[4] = test system: Broad-horned flour beetle (Gnathocerus cornutus); assay: Fumigation test in glass vessel, broad-horned flour beetles; format: in vivo; details: GNATCO beetles; Example 3; gas 45.8 g/m^3, 17.2° C. (1st fumigation), 45.4 g/m^3, 17.7° C. (2nd); 54% rel. air humidity
From the text: (§7) a3) Broad-horned flour beetle (Gnathocerus cornutus)=GNATCO
as §2, §3, §4, §5

[5] = test system: Mealworm beetle (Tenebrio molitor) larvae; assay: Fumigation test in glass vessel, mealworm beetle larvae; format: in vivo; details: TENEMO larvae; Example 3; gas 45.8 g/m^3, 17.2° C. (1st fumigation), 45.4 g/m^3, 17.7° C. (2nd); 54% rel. air humidity
From the text: as §1, §2, §3, §4, §5

[6] = test system: Rice weevil (Sitophilus oryzae) larvae; assay: Fumigation test in glass vessel, rice weevil larvae in grain seeds; format: in vivo; details: SITTOR larvae in grain seeds; Example 3; gas 45.8 g/m^3, 17.2° C. (1st fumigation), 45.4 g/m^3, 17.7° C. (2nd); 54% rel. air humidity
From the text: (§8) a2) Rice weevil (Sitophilus oryzae)=SITTOR
as §2, §3, §4, §5

[7] = test system: Broad-horned flour beetle (Gnathocerus cornutus) larvae; assay: Fumigation test in glass vessel, broad-horned flour beetle larvae; format: in vivo; details: GNATCO larvae; Example 3; gas 45.8 g/m^3, 17.2° C. (1st fumigation), 45.4 g/m^3, 17.7° C. (2nd); 54% rel. air humidity
From the text: as §7, §2, §3, §4, §5

[8] = test system: Common furniture beetle (Anobium punctatum); assay: Fumigation test in glass vessel, common furniture beetles; format: in vivo; details: ANOBPU beetles
From the text: (§9) b2) Common furniture beetle (Anobium punctatum)=[…]
as §2, §3, §4, §5

[9] = test system: Rice weevil (Sitophilus oryzae); assay: Fumigation test in glass vessel, rice weevils; format: in vivo; details: SITTOR beetles; Example 3; gas 45.8 g/m^3, 17.2° C. (1st fumigation), 45.4 g/m^3, 17.7° C. (2nd); 54% rel. air humidity
From the text: as §8, §2, §3, §4, §5

[10] = test system: Saw-toothed grain beetle (Oryzaephilus surinamensis); assay: Fumigation test in glass vessel, saw-toothed grain beetles; format: in vivo; details: ORYZSA beetles; Example 3; gas 45.8 g/m^3, 17.2° C. (1st fumigation), 45.4 g/m^3, 17.7° C. (2nd); 54% rel. air humidity
From the text: a4) Saw-toothed grain beetle (Oryzaephilus surinamensis)=ORYZSA
as §2, §3, §4, §5

[11] = test system: House longhorn beetle (Hylotrupes bajulus); assay: Fumigation test in glass vessel, house longhorn beetles; format: in vivo; details: HYLOBA beetles
From the text: as §6, §2, §3, §4, §5

[12] = test system: Common furniture beetle (Anobium punctatum) larvae; assay: Fumigation test in glass vessel, common furniture beetle larvae in wood blocks; format: in vivo; details: ANOBPU larvae in wood blocks
From the text: as §9, §2, §3, §4, §5

[13] = Example 1, gas 54.8 g/m^3, 16° C. (1st fumigation), 58.0 g/m^3, 13° C. (2nd), 66% rel. air humidity
[14] = Example 2, ventilator operation in vessel, gas 57.6 g/m^3, 20.6° C. (1st fumigation), 48.0 g/m^3, 21.5° C. (2nd)

With `O=C(F)C(F)(F)F` [Trifluoroacetyl Fluoride, Trifluoroacetyl fluoride] the “Number alive, 1 hr. after Start of Fumigation” value (“Number alive, 1 hr. after Start” for short) [1] was 0, the “Number dead, 1 hr. after Start of Fumigation” value (“Number dead, 1 hr. after Start” below) [1] was 15 and the “Time after which the animals became very active” value ([2]; Example 1, exposed beetles and larvae, gas 54.8 g/m^3, 16° C.) was 1 to 2 min. The “Time after which all the beetles lay on their backs, only legs and feelers moving slightly” value ([2]; Example 1, exposed beetles, gas 54.8 g/m^3, 16° C.) was “about 10 minutes”, the “Penetration of the wood to kill the larvae completely” value ([2]; Example 1, larvae in wooden test blocks, within a time span of 48 hours) was “does not penetrate the wood sufficiently” and the “Time after which larvae without wooden test blocks were dead” value ([2]; Example 1, larvae without wooden test blocks, gas 54.8 g/m^3, 16° C.) was “approximately 1 hour”. The “Effectiveness with respect to the larvae with ventilators” value ([2]; Example 2, air circulation through ventilators, compared with Example 1) was “no improvement in the effectiveness”, the “Effectiveness against exposed beetles and larvae” value (wood and storage pests) was “very effective” and the “Number alive, 24 hrs. after Start of Fumigation” value [3, 13] was 6. For the same compound, the “Number alive, 48 hrs. after Start of Fumigation” value [3, 13] was 3, the “Number dead, 24 hrs. after Start of Fumigation” value (from here on “Number dead, 24 hrs. after Start”) [3, 13] was 0 and the “Number dead, 48 hrs. after Start of Fumigation” value (from here on “Number dead, 48 hrs. after Start”) [3, 13] was 3. For the same compound, the “Number alive, 12 hrs. after Start of Fumigation” value [3, 14] was 7, the “Number alive, 24 hrs. after Start of Fumigation” value [3, 14] was 7 and the “Number alive, 48 hrs. after Start of Fumigation” value [3, 14] was 6. For the same compound, the “Number dead, 12 hrs. after Start of Fumigation” value (from here on “Number dead, 12 hrs. after Start”) [3, 14] was 0, the “Number dead, 24 hrs. after Start” value [3, 14] was 0 and the “Number dead, 48 hrs. after Start” value [3, 14] was 1. The “Number alive, 1 hr. after Start” value [4] was 0, the “Number dead, 1 hr. after Start” value [4] was 15 and the “Number alive, 1 hr. after Start” value [5] was 0. For the same compound, the “Number dead, 1 hr. after Start” value [5] was 15, the “Number alive, 1 hr. after Start” value [6] was 5 and the “Number alive, 3 hrs. after Start of Fumigation” value [6] was 0. For the same compound, the “Number dead, 1 hr. after Start” value [6] was 15, the “Number dead, 3 hrs. after Start of Fumigation” value [6] was 20 and the “Number alive, 1 hr. after Start” value [7] was 0. The “Number dead, 1 hr. after Start” value [7] was 15, the “Number alive, 1 hr. after Start” value [8, 13] was 0 and the “Number dead, 1 hr. after Start” value [8, 13] was 6. The “Number alive, 1 hr. after Start” value [8, 14] was 0, the “Number dead, 1 hr. after Start” value [8, 14] was 6 and the “Number alive, 1 hr. after Start” value [9] was 0. For the same compound, the “Number dead, 1 hr. after Start” value [9] was 20, the “Number alive, 1 hr. after Start” value [10] was 0 and the “Number dead, 1 hr. after Start” value [10] was 15. For the same compound, the “Number alive, 1 hr. after Start” value [11, 13] was 2, the “Number alive, 3 hrs. after Start of Fumigation” value [11, 13] was 0 and the “Number dead, 1 hr. after Start” value [11, 13] was 4. For the same compound, the “Number dead, 3 hrs. after Start of Fumigation” value [11, 13] was 6, the “Number alive, 1 hr. after Start” value [11, 14] was 1 and the “Number alive, 12 hrs. after Start of Fumigation” value [11, 14] was 0. The “Number dead, 1 hr. after Start” value [11, 14] was 5, the “Number dead, 12 hrs. after Start” value [11, 14] was 6 and the “Number alive, 24 hrs. after Start of Fumigation” value [12, 13] was 10. For the same compound, the “Number alive, 48 hrs. after Start of Fumigation” value [12, 13] was 6, the “Number dead, 24 hrs. after Start” value [12, 13] was 0 and the “Number dead, 48 hrs. after Start” value [12, 13] was 4. The “Number alive, 12 hrs. after Start of Fumigation” value [12, 14] was 11, the “Number alive, 24 hrs. after Start of Fumigation” value [12, 14] was 10 and the “Number alive, 48 hrs. after Start of Fumigation” value [12, 14] was 0. For the same compound, the “Number dead, 12 hrs. after Start” value [12, 14] was 1, the “Number dead, 24 hrs. after Start” value [12, 14] was 2 and the “Number dead, 48 hrs. after Start” value [12, 14] was 12.
